One data set addresses T1, Gwt1 (Saccharomyces cerevisiae, UniProt P47026).
T1 construct: Wildtype S. cerevisiae BY4741; endogenous in cells; host or cells: S. cerevisiae BY4741 (wild type)
T1 sequence (P47026 1-490): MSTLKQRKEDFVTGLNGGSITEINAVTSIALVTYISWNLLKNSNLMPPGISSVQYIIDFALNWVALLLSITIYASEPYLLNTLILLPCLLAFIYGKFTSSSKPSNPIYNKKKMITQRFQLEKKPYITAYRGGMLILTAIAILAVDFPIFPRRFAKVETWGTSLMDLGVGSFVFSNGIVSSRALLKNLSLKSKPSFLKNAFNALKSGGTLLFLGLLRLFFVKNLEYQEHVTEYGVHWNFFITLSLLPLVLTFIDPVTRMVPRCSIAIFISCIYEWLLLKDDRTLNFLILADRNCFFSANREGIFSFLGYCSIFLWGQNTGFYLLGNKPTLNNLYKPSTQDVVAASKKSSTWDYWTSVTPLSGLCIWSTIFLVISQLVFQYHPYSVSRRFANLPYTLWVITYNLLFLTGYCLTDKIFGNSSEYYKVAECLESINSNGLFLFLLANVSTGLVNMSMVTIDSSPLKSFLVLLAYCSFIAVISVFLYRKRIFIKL
Nature of the data set: Antifungal susceptibility testing, screening strains with plasmid-borne GWT1 (low or high copy). Format: cell-based, S. cerevisiae. Here is the method: (§1) Sensitivity to gepinacin was determined in 96-well, flat bottom microtiter plates using a modification of the NCCLS broth microdilution protocol CLS M27-A3 and RPMI as culture medium. Fungi were inoculated at ˜10^3 cells per ml and incubated for 48 hours at 37° C. after which plates were sealed, shaken and the optical density read at 600 nm (OD600) on a Tecan Safire 2 plate reader. All samples were run in duplicate or triplicate and assays were repeated at least once. Results are expressed as fraction of growth in the absence of compound and the mean and standard deviation are plotted. For the mold A. terreus, inoculum was 10^4 cells per ml and plates were incubated at 35° C. for 48 hours in the dark. Plates were then visually scored as specified by CLSI document M38-A2 to determine the MIC50 and MIC80.
Because GWT1 deletion is lethal in S. cerevisiae strain BY4741, a haploid shuttle strain was constructed in which the genomic copy of GWT1 was deleted and replaced by GWT1 on a plasmid that also encoded the URA3 gene and a G418-resistance gene. To construct this shuttle strain a gwt1Δ/GWT1 heterozygous deletion mutant was transformed with pAGGPD416-GWT1, sporulated and dissected. A colony was selected that grew on both SD-URA and G418-containing plates. PCR with the deletion specific primers (http://wwwsequence.stanford.edu/group/yeast_deletion_project/deletions3.html) was performed to confirm the GWT1 deletion. To change the source of GWT, this shuttle strain was transformed with plasmids containing GWT1 (as a control) or PIG-W and the LEU2 auxotrophy gene followed by selection for growth on SD-LEU plates. Plasmids were constructed by conventional Gateway technology using a GWT1 encoding entry vector and either pAG415GPDccdB or pAG425GPDccdB as the destination vectors. Positive colonies were selected and grown on 5-fluoroorotic acid (5-FOA)-containing plates to promote loss of the pAGGPD416-GWT1 plasmid. The colonies from this plate were then tested for return of uridine auxotrophy to confirm pAGGPD416-GWT1 loss. The PIG-W expression vector was constructed by recombination in yeast as follows. The pAG415GPDccdB vector was cut with Xho1 and Xba1 and the larger piece was gel and column purified. The coding sequence of PIG-W was PCR amplified from the entry clone so that it would have ends facilitating recombination with the cut vector. The shuttle strain was then transformed with these two DNA fragments and plated on SD-LEU plates to select for recombinants. PIG-W plasmid was isolated from the final strain and sequence verified.
The following gepinacin analogs were tested for activity against Gwt1. Gepinacin, M3, CM2, CM4, CM6, CM7, CM8, and 857621-56-8 were available commercially. The compounds were tested using the “Antifungal Susceptibility Testing” protocol described above. Fungi tested are described in the “Fungal Strains” section above.
An S. cerevesiae strain was generated in which the endogenous Gwt1 gene was deleted. Plasmids (either high copy or low copy) with either S. cerevesiae or human Gwt1 were introduced to produce strains bearing such plasmids expressing either S. cerevesiae or human Gwt1 from a constitutive promoter. Yeast strains were cultured in liquid media in the presence of indicated compounds. Shown in FIGS. 22A-D show the effect of the indicated compounds on growth (assessed by OD600) and viability (assessed using Bactiter Glo) of the yeast strain with high copy or low copy plasmid containing S. cerevesiae Gwt1. The compounds had no effect on strains with the human Gwt1, thus showing the compounds' sensitivity for the fungal (yeast) Gwt1 gene.

The subject of the next data set is Candida albicans. Nature of the data set: Antifungal susceptibility testing, wild type and drug-resistant strains. The data set is classed as cell-based. Here is the method: Anti-fungal susceptibility testing of a fluconazole-resistant C. albicans strain under standard conditions. Yeast were incubated at 30° C. for 24 hours with serial dilutions of the indicated compounds. Growth was monitored by OD600 and is expressed as fraction of the growth observed in the absence of compound.
Archives of all strains were maintained in 25% glycerol at −80° C. Standard S. cerevisiae lab strains W303, BY4741, BY4742 and BY4743 were used for experiments. The C. albicans wild type strain in FIG. 1 was CaI4, a standard laboratory strain (Fonzi, et al. (1993) Genetics 134, 717-728). […]
as §1, with “All samples were run in duplicate or triplicate and assays were repeated at least once.” left out, “For the mold A. terreus, inoculum was 10^4 cells per ml and plates were incubated at 35° C. for 48 hours in the dark.” left out

Another data set deals with BIP level in K562 cells. Nature of the data set: BIP immunoblot in mammalian cells. The data set is classed as cell-based, human. The conditions noted are these: 20 μM, 28 hour. As to the method:
Immunoblot of lysates prepared from human leukemia cells (K562) using an antibody to BIP after 28 hour exposure to tunicamycin (1 μg ml^−1), gepinacin (20 μM) or solvent vehicle (DMSO, 0.1%). Betaactin was blotted as a loading control.
In general terms: In western blotting, separated proteins are transferred to a membrane and probed.

In the case of `COc1ccc(NC(=O)COc2cccc(OCC(C)C)c2)cc1` [gepinacin], the “cell growth of the strain expressing the yeast gene (GWT1)” value on Gwt1 is reported as “potently inhibited”. For the same compound, the growth inhibition result in the data set with Candida albicans is “inhibited the growth”. Further, in the data set with Candida albicans (fluconazole-, amphotericin B-, caspofungin-resistant strains), the “growth inhibition of isolates resistant to the three major classes of antifungals” value is recorded as “inhibited the growth of multiple isolates”. In addition, the “ER function monitored by induction of BIP” value with BIP level in K562 cells is reported as “did not perturb ER function”.
